# Measured values as given in patent US10865211B2 (ENANTA PHARMACEUTICALS, INC, priority 2018, dated 2020).
# How the values were obtained:
# 2.2.15 cells = assay: Antiviral activity in 2.2.15 cells: reduction of viral product accumulation (qPCR, HBsAg/HBeAg ELISA); assay type: cell-based, HBV; conditions: Hepatitis B virus, 120 h, day 5 post treatment, concentration reducing viral product accumulation in cell lysates or supernatants by 50% relative to no drug controls
# Description: 2.2.15 cells are passaged upon attaining confluency in DMEM/F12 media in the presence of 10% FBS, Penn/Strep, and 250 ug/mL G418. Novel compounds are 5 fold serially diluted in DMSO and added to 96 well plates containing 35,000 cells/well at a 1:200 dilution so that the final concentration of DMSO is 0.5%. On day 5, post treatment cell lysates and supernatants are harvested for analysis.
# Cells are lysed using Agilent Sidestep Lysis buffer, diluted 1:100 and quantified via quantitative real time PCR. Commercially available ELISA kits are used to quantitate the viral proteins HBsAg (Alpco) or HBeAg (US Biological) by following the manufacturer's recommended protocol after diluting samples to match the linear range of their respective assays. Irrespective of readout, compound concentrations that reduce viral product accumulation in the cell lysates or supernatants by 50% relative to no drug controls (EC50) are reported; EC50 ranges are as follows: A<0.1 μM; B 0.1-1 μM; C>1 μM.
# [1] = Compound induced cellular toxicity in HepG2 cells (ATPlite); assay type: cell-based; conditions: human, three days, ATPlite 1 Step, concentration reducing total ATP levels by 50% relative to no drug controls
# Description: At day 3, post seeding cells are treated with ATPlite 1 Step according to the manufacturer's instructions.
Structure (SMILES),EC50 (2.2.15 cells) [µM],CC50 at 3 days [1] [µM]
"CC(C)(C)[C@@H]1Cc2c(oc3c(-c4cnco4)cccc23)-c2c(F)c(=O)c(C(=O)O)cn21 [Example 58, (S)-6-(tert-butyl)-1-fluoro-11-(oxazol-5-yl)-2-oxo-6,7-dihydro-2H-benzofuro[2,3-a]quinolizine-3-carboxylic acid]",< 0.1,> 25
"Cn1nccc1-c1cccc2c3c(oc12)-c1c(F)c(=O)c(C(=O)O)cn1[C@H](C(C)(C)C)C3 [Example 59, (S)-6-(tert-butyl)-1-fluoro-11-(1-methyl-1H-pyrazol-5-yl)-2-oxo-6,7-dihydro-2H-benzofuro[2,3-a]quinolizine-3-carboxylic acid]",< 0.1,> 25
"CC(C)(C)[C@@H]1Cc2c(oc3c(-c4nccs4)cccc23)-c2c(F)c(=O)c(C(=O)O)cn21 [Example 61, (S)-6-(tert-butyl)-1-fluoro-2-oxo-11-(thiazol-2-yl)-6,7-dihydro-2H-benzofuro[2,3-a]quinolizine-3-carboxylic acid]",< 0.1,> 25
"CC(C)(C)[C@@H]1Cc2c(oc3c(-c4cscn4)cccc23)-c2c(F)c(=O)c(C(=O)O)cn21 [Example 62, (S)-6-(tert-butyl)-1-fluoro-2-oxo-11-(thiazol-4-yl)-6,7-dihydro-2H-benzofuro[2,3-a]quinolizine-3-carboxylic acid]",< 0.1,10 to 25
"CC(C)(C)[C@@H]1Cc2c(oc3c(-n4cccn4)cccc23)-c2c(F)c(=O)c(C(=O)O)cn21 [Example 63, (S)-6-(tert-butyl)-1-fluoro-2-oxo-11-(1H-pyrazol-1-yl)-6,7-dihydro-2H-benzofuro[2,3-a]quinolizine-3-carboxylic acid]",< 0.1,> 25
"Cc1cccc2c3c(oc12)-c1c(F)c(=O)c(C(=O)O)cn1[C@H](C(C)(C)C)C3 [Example 64, (S)-6-(tert-butyl)-1-fluoro-11-methyl-2-oxo-6,7-dihydro-2H-benzofuro[2,3-a]quinolizine-3-carboxylic acid]",< 0.1,> 25
"CC(C)(C)[C@@H]1Cc2c(oc3c(C4CC4)cccc23)-c2c(F)c(=O)c(C(=O)O)cn21 [Example 65, (S)-6-(tert-butyl)-11-cyclopropyl-1-fluoro-2-oxo-6,7-dihydro-2H-benzofuro[2,3-a]quinolizine-3-carboxylic acid]",< 0.1,> 25
"CC(C)[C@@H]1Cc2c(oc3c(-c4ccoc4)cccc23)-c2cc(=O)c(C(=O)O)cn21 [Example 66, (S)-11-(furan-3-yl)-6-isopropyl-2-oxo-6,7-dihydro-2H-benzofuro[2,3-a]quinolizine-3-carboxylic acid]",< 0.1,10 to 25
"CC(C)[C@@H]1Cc2c(oc3c(-c4ccco4)cccc23)-c2cc(=O)c(C(=O)O)cn21 [Example 67, (S)-11-(furan-2-yl)-6-isopropyl-2-oxo-6,7-dihydro-2H-benzofuro[2,3-a]quinolizine-3-carboxylic acid]",< 0.1,10 to 25
"CC(C)[C@@H]1Cc2c(oc3cc(OC(F)F)ccc23)-c2cc(=O)c(C(=O)O)cn21 [Example 68, (S)-10-(difluoromethoxy)-6-isopropyl-2-oxo-6,7-dihydro-2H-benzofuro[2,3-a]quinolizine-3-carboxylic acid]",< 0.1,< 10
"CC(C)[C@@H]1Cc2c(oc3cc(C#N)ccc23)-c2cc(=O)c(C(=O)O)cn21 [Example 69, (S)-10-cyano-6-isopropyl-2-oxo-6,7-dihydro-2H-benzofuro[2,3-a]quinolizine-3-carboxylic acid]",< 0.1,> 25
"CC(C)[C@@H]1Cc2c(oc3c(-c4cnsc4)cccc23)-c2cc(=O)c(C(=O)O)cn21 [Example 70, (S)-6-isopropyl-11-(isothiazol-4-yl)-2-oxo-6,7-dihydro-2H-benzofuro[2,3-a]quinolizine-3-carboxylic acid]",< 0.1,> 25
CC(C)[C@@H]1Cc2c(oc3c(N4CCC(F)(F)C4)cccc23)-c2cc(=O)c(C(=O)O)cn21 [Example 71],< 0.1,< 10
"CC(C)[C@@H]1Cc2c(oc3cc(-n4cccn4)ccc23)-c2cc(=O)c(C(=O)O)cn21 [Example 72, (S)-6-isopropyl-2-oxo-10-(1H-pyrazol-1-yl)-6,7-dihydro-2H-benzofuro[2,3-a]quinolizine-3-carboxylic acid]",< 0.1,< 10
"Cc1ccc2c3c(oc2c1)-c1cc(=O)c(C(=O)O)cn1[C@H](C(C)C)C3 [Example 73, (S)-6-isopropyl-10-methyl-2-oxo-6,7-dihydro-2H-benzofuro[2,3-a]quinolizine-3-carboxylic acid]",< 0.1,> 25
"CC(C)[C@@H]1Cc2c(oc3cc(C4CC4)ccc23)-c2cc(=O)c(C(=O)O)cn21 [Example 74, (S)-10-cyclopropyl-6-isopropyl-2-oxo-6,7-dihydro-2H-benzofuro[2,3-a]quinolizine-3-carboxylic acid]",< 0.1,10 to 25
"CC(C)[C@@H]1Cc2c(oc3cc(-c4ccsc4)ccc23)-c2cc(=O)c(C(=O)O)cn21 [Example 76, (S)-6-isopropyl-2-oxo-10-(thiophen-3-yl)-6,7-dihydro-2H-benzofuro[2,3-a]quinolizine-3-carboxylic acid]",< 0.1,> 25
"CC(C)[C@@H]1Cc2c(oc3c(OC(F)F)cccc23)-c2cc(=O)c(C(=O)O)cn21 [Example 77, (S)-11-(difluoromethoxy)-6-isopropyl-2-oxo-6,7-dihydro-2H-benzofuro[2,3-a]quinolizine-3-carboxylic acid]",< 0.1,> 25
"CC(C)[C@@H]1Cc2c(oc3c(C#N)cccc23)-c2cc(=O)c(C(=O)O)cn21 [Example 78, (S)-11-cyano-6-isopropyl-2-oxo-6,7-dihydro-2H-benzofuro[2,3-a]quinolizine-3-carboxylic acid]",< 0.1,> 25
"CC(C)[C@@H]1Cc2c(oc3c(-c4cccs4)cccc23)-c2cc(=O)c(C(=O)O)cn21 [Example 79, (S)-6-isopropyl-2-oxo-11-(thiophen-2-yl)-6,7-dihydro-2H-benzofuro[2,3-a]quinolizine-3-carboxylic acid]",< 0.1,< 10
"CC(C)[C@@H]1Cc2c(oc3c(-c4ccsc4)cccc23)-c2cc(=O)c(C(=O)O)cn21 [Example 80, (S)-6-isopropyl-2-oxo-11-(thiophen-3-yl)-6,7-dihydro-2H-benzofuro[2,3-a]quinolizine-3-carboxylic acid]",< 0.1,< 10
"CC(C)[C@@H]1Cc2c(oc3c(-n4cccn4)cccc23)-c2cc(=O)c(C(=O)O)cn21 [Example 81, (S)-6-isopropyl-2-oxo-11-(1H-pyrazol-1-yl)-6,7-dihydro-2H-benzofuro[2,3-a]quinolizine-3-carboxylic acid]",< 0.1,> 25
"Cc1cccc2c3c(oc12)-c1cc(=O)c(C(=O)O)cn1[C@H](C(C)C)C3 [Example 82, (S)-6-isopropyl-11-methyl-2-oxo-6,7-dihydro-2H-benzofuro[2,3-a]quinolizine-3-carboxylic acid]",< 0.1,> 25
"CC(C)[C@@H]1Cc2c(oc3c(C4CC4)cccc23)-c2cc(=O)c(C(=O)O)cn21 [Example 83, (S)-11-cyclopropyl-6-isopropyl-2-oxo-6,7-dihydro-2H-benzofuro[2,3-a]quinolizine-3-carboxylic acid]",< 0.1,< 10
"CC(C)[C@@H]1Cc2c(oc3c(-c4cnco4)cccc23)-c2cc(=O)c(C(=O)O)cn21 [Example 84, (S)-6-isopropyl-11-(oxazol-5-yl)-2-oxo-6,7-dihydro-2H-benzofuro[2,3-a]quinolizine-3-carboxylic acid]",< 0.1,> 25
